{
  "source": "patent US12013389B2",
  "about": "“Method of evaluating pathological conditions of heart failure” (NATIONAL UNIVERSITY CORPORATION HOKKAIDO UNIVERSITY, priority 2018, dated 2024)",
  "key": {"HF model mice [1]": {"system": "HF model mice", "assay": "Echocardiography of HF model mice given ALA", "assay_type": "in vivo", "settings": "HF model mice with ALA vs without ALA; 6 to 8 mg/kg/day; day 28 after operation", "experimental": "Echocardiography was performed under anesthesia ([…] 8 μL/gBW, intraperitoneal administration) with a short duration of action and least impact on the cardiovascular system. The limbs and tail were fixed in a lying position to an examination table with a tape and the anterior chest wall of the mice was depilated with a depilatory cream. Using an ultrasonic diagnostic device and a 12 MHz linear probe, optimal 2D parasternal short-axis images were visualized at the papillary muscle level. Switching to an M mode method was performed, recording was performed at a recording paper speed of 40 mm/s, and a heart rate, a left ventricular end-diastolic dimension, a left ventricular end-systolic dimension, a left ventricular anterior wall thickness, a left ventricular posterior wall thickness, and a left ventricular fractional shortening were measured.\n(§1) The left anterior descending coronary artery of the heart of 10- to 12-week old male C57BL/6J mice (body weight of 23 to 26 g) was ligated to cause myocardial infarction (MI). The body weight of the mice was measured before the operation, a mixed anesthetic containing 3 types including 0.3 mg/kg BW of medetomedine hydrochloride, 4.0 mg/kg BW of midazolam, and 5.0 mg/kg BW of butorphanol tartrate was intraperitoneally administered, and it was confirmed that the depth of anesthesia was sufficient. […]"}, "mitochondrial complex IV": {"system": "mitochondrial complex IV", "assay": "Respiratory capacity related to complex IV in myocardial mitochondria of HF model mice given ALA", "assay_type": "in vivo", "settings": "ALA 50 mg/L in drinking water (6 to 8 mg/kg/day), day 28 after operation", "experimental": "(§2) A mitochondrial respiratory capacity (oxidative phosphorylation: OXPHOS) was measured by a high-resolution respiration measurement method. Specifically, isolated mitochondria (50 to 100 μg) or myocardial fibrous tissues (0.5 to 3 mg) after the cell membrane permeation treatment were used as a test sample, and measurement was performed using a mitochondrial oxygen activity/cell metabolic energy analyzing device (product name: “OROBOROS Oxygraph-2 k,” commercially available from Innsbruck) (hereinafter referred to as a “mitochondrial respiratory capacity measurement device” in some cases) under an environment at 37° C. according to the following protocol. An oxygen consumption amount was calculated using Datlab software, and in this case, correction was performed per tissue weight or per mitochondrion.\n(8) The respiratory capacity when 2 mmol/L of ascorbic acid and 0.5 mmol/L of TMPD (N,N,N′,N′-tetramethyl-p-phenylenediamine), which are substrates of mitochondrial complex IV, were added was measured. Next, the respiratory capacity when 100 mmol/L of sodium azide as an inhibitor was added was measured, and a difference therebetween was calculated (CIV_OXPHOS).\n(§3) The left anterior descending coronary artery of the heart of 10- to 12-week old male C57BL/6J mice (body weight of 23 to 26 g) was ligated to cause myocardial infarction (MI). […]"}, "[2]": {"system": "mitochondrial complex I and mitochondrial complex II", "assay": "Respiratory capacity related to complex I and complex II in myocardial mitochondria of HF model mice given ALA", "assay_type": "in vivo", "settings": "ALA 50 mg/L in drinking water (6 to 8 mg/kg/day), day 28 after operation", "experimental": "as §2\n(§4) (3) 10 mmol/L of succinic acid, which is a substrate related to mitochondrial complex II, was added, and the oxygen consumption amount was measured (CI+II_OXPHOS). […]\n(§5) Specifically, after the HF model mice were underwent a left coronary artery ligation operation, an aqueous solution (50 mg/L) containing ALA (≥98%, commercially available from Sigma Aldrich) was administered by forced drinking (6 to 8 mg/kg/day), and on the 28th day after the operation, the mitochondrial functions were measured using echocardiography and a mitochondrial respiratory capacity measurement device. […]"}, "mitochondrial complex II [3]": {"system": "mitochondrial complex II", "assay": "Respiratory capacity related to complex II in myocardial mitochondria of HF model mice given ALA", "assay_type": "in vivo", "settings": "ALA 50 mg/L in drinking water (6 to 8 mg/kg/day), day 28 after operation", "experimental": "as §2\n(4) In order to observe the respiration of OXPHOS of mitochondrial complex II alone, 0.5 μmol/L of rotenone, which is an inhibitor of mitochondrial complex I, was added and the oxygen consumption amount was measured (CII_OXPHOS).\nas §3"}, "HF model mice [4]": {"system": "HF model mice", "assay": "Exercise capacity (treadmill) of HF model mice given ALA", "assay_type": "in vivo", "settings": "HF model mice with ALA vs without ALA; treadmill run until exhaustion", "experimental": "as §1, §5\nIn addition, the exercise capacities of the HF model mice without administration of ALA and the HF model mice to which ALA was administered were examined. The exercise capacity was expressed as a product of an exercise time and a body weight. The exercise time was measured using a small animal treadmill, and mice were at rest for 10 minutes, and w-up for 10 minutes (6 m/min, inclination of 10 degrees), and then forced to run until exhaustion by increasing a load (2 m/2 min). […]"}, "H9c2 cells [5]": {"system": "H9c2 cells", "assay": "Succinylation level of mitochondrial proteins of glycine-treated H9c2 cells", "assay_type": "cell-based", "experimental": "(§6) When glycine was used, glycine was added to the culture medium for cultured H9c2 cells so that the concentration was 100 mM, and the cells were cultured for 6 hours. After culturing, the cells were collected and mitochondria were isolated. Then, the succinylation level of the mitochondrial proteins was measured by WB.\n(§7) In addition, in the heme synthesis process, glycine and succinyl-CoA reacted to synthesize ALA. […] The succinylation level and the respiratory capacity related to mitochondrial complex II were examined."}, "H9c2 cells [6]": {"system": "H9c2 cells", "assay": "Respiratory capacity related to mitochondrial complex II in glycine-treated H9c2 cells", "assay_type": "cell-based", "experimental": "as §6, §7"}, "mitochondrial proteins": {"system": "mitochondrial proteins", "assay": "Succinylation assay of mitochondrial proteins (isolated mouse heart mitochondria, western blotting)", "assay_type": "biochemical, mice", "experimental": "(§8) First, the heart (left ventricle) extracted from euthanized mice under anesthesia was immersed in a tissue preservation solution BIOPS (2.77 mM CaK2EGTA, 7.23 mM K2EGTA, 5.77 mM Na2ATP, 6.56 mM MgCl2/6H2O, 20 mM taurine, 15 mM Na2 phosphocreatine, 20 mM imidazole, 0.5 mM dithiothreitol, 50 mM MES hydrate, pH 7.1), and then shredded in a tissue isolation buffer (100 mM sucrose, 100 mM KCl, 50 mM tris-HCl, 1 mM KH2PO4, 0.1 mM EGTA, 0.2% bovine serum albumin, pH 7.4). Protease was added to this shredded product to cause an enzyme reaction and homogenization was then performed. The obtained homogenized solution was centrifuged to remove the supernatant, and the precipitate was washed with a tissue isolation buffer twice. A suspension buffer (225 mM mannitol, 75 mM sucrose, 10 mM tris-HCl, 0.1 mM EDTA, pH 7.4) was added to the washed precipitate and the precipitate was dissolved.\n[…] Then, the succinylation level of the mitochondrial proteins was measured by western blotting (WB).\nSpecifically, first, succinyl-CoA (0, 1, 3, or 10 mM) was added to the mitochondria collected from the left ventricle of wild type mice (C57BL/6J), succinylation assay was performed, and the succinylation level of the mitochondrial proteins (the relative amount when the amount of succinylation proteins without addition of succinyl-CoA (0 mM) was set as 1) was examined. […]"}, "mitochondrial complex II [7]": {"target": "T1, mitochondrial complex II (Mus musculus, UniProt Q8K2B3+Q9CQA3+Q9CXV1+Q9CZB0)", "T1 construct": "from tissue; host or cells: mitochondria isolated from the left ventricle (myocardium) of C57BL/6J mice (wild type, sham control or HF model)", "T1 sequence (Q8K2B3 43-664)": "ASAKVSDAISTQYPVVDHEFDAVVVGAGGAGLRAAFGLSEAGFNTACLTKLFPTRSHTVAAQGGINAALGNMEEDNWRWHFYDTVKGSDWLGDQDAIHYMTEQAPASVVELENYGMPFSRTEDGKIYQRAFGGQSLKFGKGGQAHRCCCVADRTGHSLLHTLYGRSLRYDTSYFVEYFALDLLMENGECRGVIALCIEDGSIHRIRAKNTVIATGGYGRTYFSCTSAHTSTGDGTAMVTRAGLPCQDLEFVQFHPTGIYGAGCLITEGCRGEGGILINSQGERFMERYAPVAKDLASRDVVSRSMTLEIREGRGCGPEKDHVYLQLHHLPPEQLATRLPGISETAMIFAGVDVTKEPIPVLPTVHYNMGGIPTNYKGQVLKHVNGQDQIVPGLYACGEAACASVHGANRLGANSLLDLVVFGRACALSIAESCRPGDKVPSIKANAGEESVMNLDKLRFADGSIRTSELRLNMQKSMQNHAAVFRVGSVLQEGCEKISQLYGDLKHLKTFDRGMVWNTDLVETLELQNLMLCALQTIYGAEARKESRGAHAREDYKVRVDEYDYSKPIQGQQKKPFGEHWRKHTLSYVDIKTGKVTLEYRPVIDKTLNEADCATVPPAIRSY", "T1 sequence (Q9CQA3 29-282 limits assumed)": "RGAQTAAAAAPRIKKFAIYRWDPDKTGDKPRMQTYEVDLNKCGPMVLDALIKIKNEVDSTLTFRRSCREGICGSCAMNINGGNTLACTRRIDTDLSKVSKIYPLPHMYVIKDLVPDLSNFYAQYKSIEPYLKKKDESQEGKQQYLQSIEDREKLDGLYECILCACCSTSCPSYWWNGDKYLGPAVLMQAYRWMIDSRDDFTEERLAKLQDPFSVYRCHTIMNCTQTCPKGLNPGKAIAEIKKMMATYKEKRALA", "T1 sequence (Q9CZB0 30-169)": "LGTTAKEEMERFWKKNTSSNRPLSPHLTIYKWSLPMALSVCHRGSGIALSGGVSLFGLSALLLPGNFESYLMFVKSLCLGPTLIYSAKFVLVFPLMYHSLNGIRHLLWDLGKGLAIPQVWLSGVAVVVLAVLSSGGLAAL", "T1 sequence (Q9CXV1 57-159)": "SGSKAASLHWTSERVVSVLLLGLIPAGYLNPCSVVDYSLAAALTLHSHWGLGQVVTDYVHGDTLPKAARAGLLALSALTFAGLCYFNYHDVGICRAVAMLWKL", "assay": "Mitochondrial respiratory capacity related to complex II after adding succinyl-CoA to isolated mitochondria (high-resolution respiration measurement)", "assay_type": "biochemical", "settings": "mitochondria isolated from wild type mice", "experimental": "as §8, with “A suspension buffer (225 mM mannitol, 75 mM sucrose, 10 mM tris-HCl, 0.1 mM EDTA, pH 7.4) was added to the washed precipitate and the precipitate was dissolved.” left out\nA mitochondrial respiratory capacity (oxidative phosphorylation: OXPHOS) was measured by a high-resolution respiration measurement method. […] An oxygen consumption amount was calculated using Datlab software, and in this case, correction was performed per tissue weight or per mitochondrion. […]\n(2) 10 mmol/L of glutamic acid, 2 mmol/L of malic acid, and 5 mmol/L of pyruvic acid, which are substrates related to mitochondrial complex I, were added, and the oxygen consumption amount was measured (CI_OXPHOS).\nas §4"}, "mitochondrial complex II [8]": {"system": "mitochondrial complex II", "assay": "Expression level of mitochondrial complex II per mitochondrion (blue native method, anti-SDHA)", "assay_type": "biochemical", "settings": "mitochondria isolated from HF model mice treated with 1 mM succinyl-CoA", "experimental": "Based on the results so far, it was clearly understood that the respiratory capacity related to mitochondrial complex II could be controlled by the expression level of mitochondrial complex II per mitochondrion. Therefore, for the mitochondria isolated from the control mice and the HF model mice and the mitochondria isolated from the HF model mice and then treated with 1 mM succinyl-CoA, the expression level of mitochondrial complex II per mitochondrion was evaluated using anti-SDHA mouse monoclonal antibodies (1:1,000, ab14715, commercially available from Abeam) by a blue native method."}, "[9]": {"settings": "H9c2 cells treated with glycine, succinyl-CoA added"}},
  "data": [
    {"smiles": "NCC(=O)CCC(=O)O", "note": "[ALA, 5-aminolevulinic acid]", "values": [
      {"measurement": "left ventricular fractional shortening (% FS)", "setting": "HF model mice [1]", "value": "significantly improved"},
      {"measurement": "respiratory capacity related to mitochondrial complex IV", "setting": "mitochondrial complex IV", "value": "improved"},
      {"measurement": "respiratory capacity related to mitochondrial complex I and mitochondrial complex II", "setting": "[2]", "value": "improved"},
      {"measurement": "respiratory capacity related to mitochondrial complex II", "setting": "mitochondrial complex II [3]", "value": "improved"},
      {"measurement": "exercise capacity (exercise time x body weight)", "setting": "HF model mice [4]", "value": "significantly improved"}
    ]},
    {"smiles": "NCC(=O)O", "note": "[glycine, reference compound]", "values": [
      {"measurement": "succinylation level of mitochondrial proteins", "setting": "H9c2 cells [5]; H9c2 cells treated with glycine (100 mM, 6 hours)", "value": "decreased"},
      {"measurement": "respiratory capacity related to mitochondrial complex II", "setting": "H9c2 cells [6]; cells treated with glycine", "value": "decreases"}
    ]},
    {"smiles": "CC(C)(COP(=O)(O)OP(=O)(O)OC[C@H]1O[C@@H](n2cnc3c(N)ncnc32)[C@H](O)[C@@H]1OP(=O)(O)O)[C@@H](O)C(=O)NCCC(=O)NCCSC(=O)CCC(=O)O", "note": "[succinyl-CoA]", "values": [
      {"measurement": "succinylation in the mitochondrial protein", "setting": "mitochondrial proteins; mitochondria from left ventricle of wild type mice (C57BL/6J), succinyl-CoA 1, 3 or 10 mM, relative to 0 mM", "value": "increased"},
      {"measurement": "succinylation level of mitochondrial proteins", "setting": "mitochondrial proteins; mitochondria isolated from HF model mice, 0.1 mM succinyl-CoA", "value": "improved"},
      {"measurement": "respiratory capacity related to mitochondrial complex II", "setting": "mitochondrial complex II [7]; 1 mM succinyl-CoA", "value": "increased"},
      {"measurement": "respiratory capacity related to mitochondrial complex II", "setting": "mitochondrial complex II [7]; 10 mM succinyl-CoA", "value": "significantly decreased"},
      {"measurement": "amount of mitochondrial complex II (expression level per mitochondrion)", "setting": "mitochondrial complex II [8]", "value": "remained reduced"},
      {"measurement": "succinylation level of mitochondrial proteins", "setting": "H9c2 cells [5]; [9]", "value": "improved"},
      {"measurement": "respiratory capacity related to mitochondrial complex II", "setting": "H9c2 cells [6]; [9]", "value": "improved"}
    ]}
  ]
}
